Like-named read-outs stand apart in the source and are kept apart here.
How the values were obtained:
Type in all cases: cell-based
[1] = tested on: CRC and NSCLC cell lines that carry KRAS mutations; assay: Cell proliferation assay (CellTiter-Glo, 72 hrs), dose matrix, Example 2, all six cell lines; conditions: in the combination dose matrix
Procedure: The cell lines used in this study were purchased from American Type Cell Collection, including non-small cell lung cancer cell lines NCI—H23 & NCI—H2122 (which carry both KRAS and LKB1 mutations), NCI—H358 (which carries KRAS mutation), NCI—H460 (which carries KRAS, LKB1 and PIK3CA mutations), and Colorectal Cancer cell line SW480 (which carries KRAS mutation), HCT-15 (which carries KRAS PIK3CA mutations). All the cell lines were cultured at 37° C. in a 5% CO2 incubator in RPMI 1640 (ATCC #30-2001) media complemented with 10% fetal bovine serum, 2 mmol/L glutamine and 1% sodium pyruvate.
Cell viability was determined by measuring cellular ATP content using the CellTiter-Glo® Luminescent Cell Viability Assay (Promega #G7573) according to manufacturer's protocol. Briefly, 500-900 cells/well were plated on clear-bottom 384-well black plates (Greiner#781091) in quadruplicates or duplicates with 30 ul/well growth media, cells were allowed to attach overnight and followed by 72 hrs of incubation with various concentration of drugs or drug combinations (10 ul/well), at the end of the drug treatment, 30 ul/well of the CellTiter-Glo regent were added to each well to lyse the cells, and luminescence signals were recorded on a Envision plate reader. […]

COLO-678 = assay: Cell viability (CellTiterGlo, 72 h), Example 1; conditions: Homo sapiens, single agent
Source text: (§1) The colorectal cancer cell lines SW1417, COLO 205, LS411N, HT-29, RKO, OUMS-23, SW620, LoVo, SW480, SW837, COLO-678, LS123-NCI—H747, HCT-15, HCT116, DLD-1, T84, SW948, LS180, GP2d, HuTu 80, CW-2, SW48, NCI—H716, C2Bbe1, SNU—C1 and KM12 are obtained from the American Type Culture Collection (ATCC) and maintained in their respective culture medium as specified by the provider. These colorectal cancer cell lines have the following mutation status:
(§2) For assessment of combination effects, cells are seeded into 384-well plates at 500 cells/well and incubated overnight. The contents of the compound master plates are pre-diluted with 1:200 (1 μL compound solution to 200 μL cell […] culture medium containing 10% fetal clf serum) before transferring 5 μL of this pre-dilution to the cell plates containing 20 μL cell culture medium, to achieve the targeted final compound concentrations as well as a vehicle (DMSO) concentration of 0.09%.
(§3) Effects of single agents as well as their checkerboard combinations on cell viability are assessed after 72 hours of incubation at 37° C./5% CO2 by quantification of cellular ATP levels (CellTiterGlo, Promega) using 25 μL reagent/well and n=2 repliate plates per condition. The number/viability of cells at the time of compound addition was likewise assessed and used to estimate the population doubling time of the particular cell line. Single agent IC50s are calculated using standard four-parametric curve fitting (SLFit, model 205). Potential synergistic interactions between compound combinations are assessed using the Excess Inhibition 2D matrix according to the Loewe additivity model and are reported as Synergy Score. In addition, compound combinations are assessed by combination index analysis derived from isobologram graphs at 50% inhibition, and are reported as best combination index (CI), which corresponds to the lowest value on the isobologram. All synergy calculations are performed using CHALICE software (Lehár et al, Nat Biotechnol. (July 2009), 27(4): […]).

HuTu 80 = assay: Cell viability (CellTiterGlo, 72 h), Example 1; conditions: Homo sapiens, HuTu80, single agent
Source text: as §1, §2, §3

KM12 = assay: Cell viability (CellTiterGlo, 72 h), Example 1; conditions: Homo sapiens, single agent
Source text: as §1, §2, §3

IC50 (COLO-678; read-out: Cmpd. A IC50) | IC50 (COLO-678; read-out: Cmpd. B IC50) | Structure (SMILES) | doses at which synergistic regions are typically observed [1] | IC50 (HuTu 80; read-out: Cmpd. A IC50) | IC50 (KM12; read-out: Cmpd. A IC50) | IC50 (HuTu 80; read-out: Cmpd. B IC50) | IC50 (KM12; read-out: Cmpd. B IC50)
> 10800 nM | – | Cc1nc(NC(=O)N2CCC[C@H]2C(N)=O)sc1-c1ccnc(C(C)(C)C(F)(F)F)c1 [COMPOUND A, (S)-pyrrolidine-1,2-dicarboxylic acid 2-amide 1-({4-methyl-5-[2-(2,2,2-trifluoro-1,1-dimethyl-ethyl)-pyridin-4-yl]-thiazol-2-yl}-amide)] | above 150 nM | 8840 nM | > 10800 nM | – | –
– | 1710 nM | Cn1cnc2c(F)c(Nc3ccc(Br)cc3F)c(C(=O)NOCCO)cc21 [COMPOUND B, 6-(4-bromo-2-fluorophenylamino)-7-fluoro-3-methyl-3H-benzoimidazole-5-carboxylic acid (2-hydroxyethoxy)-amide] | ≥ 80 nM | – | – | > 2700 nM | 339 nM
